Source: patent US6414021B1, “Control of intraocular pressure during surgery” (Sucampo AG, priority 2000, dated 2002)

Key:
[1] = system: intraocular pressure in monkeys; test: Intraocular pressure lowering effect by perfusion in the anterior chamber in monkeys (Example 1, 59 ng/mL); format: in vivo, cynomolgus monkeys; settings: for IOP decrease as compared with changes in IOP of the control after vehicle perfusion: 59 ng/mL, anterior chamber perfusion 50 μL/min for 1 hour, n=2
Protocol: The intraocular pressure lowering effect of 15-keto acid of latanoprost (13,14-dihydro-15-keto-17-phenyl-18,19,20-trinor-PGF2α) by perfusion in the anterior chamber in monkeys was investigated.
Male cynomolgus monkeys (body weight: 4.5-6.5 kg) were used. These monkeys were housed individually in cages for monkeys in a room which was maintained at room temperature of 24±1° C., relative humidity of 55±10%, ventilation of about 12 times/hour and a 12-hour light-dark cycle (fluorescent lighting: 8:00 a.m. to 8:00 p.m). The animals were given solid food for monkeys (PS, Oriental Yeast Co., Ltd.), vegetables and fruits, and allowed free access to tap water from an automatic dispenser. The healthy animals without abnormalities in the anterior segment of the eye were used in this study.
In the present study the solution containing 59 ng/mL of 15-keto acid of latanoprost was adjusted with commercially available intraocular perfusate (Opeguard-MA, Lot P-464, Senju Pharmaceutical Co., Ltd.). The control solution (vehicle) was the intraocular perfusate.
The animals were anesthetized by the injection intramuscularly with 5.0-7.5 mg/kg of ketamine hydrochloride (Ketalar®50, Sankyo Co., Ltd.), and restrained in a supine position. In operation and perfusion of the dosing solution in the anterior chamber, the anesthesia was maintained by intramuscular injection of 5 mg/kg of ketamine at interval of 30 minutes. […]
After the ocular surface of monkeys was anesthetized by instillation of 0.4% oxybuprocaine hydrochloride (Benoxil® 0.4% solution, Santen Pharmaceutical Co., Ltd.) under i.m. systemic anesthesia with 5 mg/kg of ketamine hydrochloride, IOP was measured with an applanation pneumatonograph (Alcon Japan Ltd.). IOP was measured before perfusion of the test substance and 2 and 4 hours after perfusion (3 and 5 hours, respectively, after the start of the perfusion of the test substance). The mean value of the IOP measured twice at 30-minute interval before perfusion was used as IOP before perfusion of the test substance. […]

[2] = system: intraocular pressure in monkeys; test: Effects on intraocular pressure by intra-anterior chamber perfusion with a lower dosage in monkeys (Example 2, 2 ng/mL); format: in vivo, cynomologus monkeys; settings: for IOP: perfusion 40 μL/min for 1 hour; for IOP / Difference in IOP between both treatments (IOP in 15-keto acid of latanoprost treatment minus IOP in vehicle treatment) / ΔIOP: Changes of IOP from pre-treatment value: mean ± S.E. of 7 animals
Protocol: The effects on intraocular pressure by intra-anterior chamber perfusion with a lower dosage of 13,14-dihydro-15-keto-17-phenyl-18,19,20-trinor-PGF2 α (15-keto acid of latanoprost) were investigated in monkeys. One hour perfusion in the anterior chamber with 15-keto acid of latanoprost at the concentration (2 ng/mL) was carried out.
The solution containing 15-keto acid of latanoprost at 2 ng/mL was prepared with a commercially available intraocular perfusate (Opeguard MA, Senju Pharmaceutical Co. Ltd.) as a vehicle.
Seven male cynomologus monkeys (Body weight: 3.9-6.0 kg) purchased from Kasyo Co., Ltd. were used. These monkeys were housed individually in cages in a room which was maintained at room temperature of 24±1° C., relative humidity of 55±10%, ventilation rate of about 12 times/hour and 12-hour light-dark cycle (fluorescent lighting: 8:00 to 20:00). The animals were given food pellets for monkeys (PS, Oriental Yeast Co., Ltd.), vegetables and fruits once a day, and allowed free access to tap water from an automatic dispenser. The healthy animals without abnormalities in the anterior segment of the eye were used in this study.
The animals were anesthetized by an intramuscular injection of 5.0-7.5 mg/kg of katamine hydrochloride (Ketalar 50, Sankyo Co., Ltd.), and restrained in a supine position. Two 30 G injection needles (one for infusion of the dosing solution and the other for discharge, Becton Dickinson and Co.) connected to polyethylene cannula (PE10, Becton Dickinson and Co.) were inserted into the anterior chamber from the temporal corneal ring of the eye ball. The anterior chamber was perfused with the 15-keto acid of latanoprost solution or the vehicle at a rate of 40 μL/min through the cannula for 1 hour using a syringe pump (Model 100, KD Scientific Inc.). During the perfusion, the anesthesia was maintained by intramuscular injection of 5.0 mg/kg ketamine hydrochloride every 20 minutes.
The animals were systemically anesthetized by an intramuscular injection of 5.0-7.5 mg/kg of ketamine hydrochloride (Ketalar 50, Sankyo Co., Ltd.), and the ocular surface was anesthetized by a instillation of 0.4% oxybuprocaine hydrochloride (Benoxil 0.4% solution, Santen Pharmaceutical Co., Ltd.). The animals were fixed in a supine position, and the intraocular pressure was measured by use of a pneumatonometer (Model 30 Classic, Mentor O & O.) before, and 3 and 5 hours after starting the perfusion (2 and 4 hours after stopping the perfusion, respectively).
The animals were used two times. The same eye of each animal was used for both treatments in a crossover way with a recovery period for at least 12 days.
The data were statistically analyzed with Student's t-test or paired t-test. P values less than 0.05 were considered to be statistically significant.

[3] = 2 ng/mL, 3 hours after starting perfusion
[4] = 2 ng/mL, 5 hours after starting perfusion

With `O=C(O)CCC/C=C\C[C@@H]1[C@@H](CCC(=O)CCc2ccccc2)[C@H](O)C[C@@H]1O` [15-keto acid of latanoprost, 13,14-dihydro-15-keto-17-phenyl-18,19,20-trinor-PGF2α] the “IOP decrease as compared with changes in IOP of the control after vehicle perfusion” value ([1]; 3 hours after the start of perfusion) was 2.8 mmHg, the “IOP decrease as compared with changes in IOP of the control after vehicle perfusion” value ([1]; 5 hours after the start of perfusion) was 2.3 mmHg and the “effect on intraocular pressure (in words)” value ([1]; perfusion in the anterior chamber, monkeys) was “intraocular pressure was lowered”. For the same compound, the “effect on intraocular pressure (in words)” value ([2]; 2 ng/mL solution, intra-anterior chamber perfusion) was “significant reduction in the intraocular pressure”, the IOP [2, 3] was 23.1 ± 1.3 mmHg and the IOP [2, 4] was 24.4 ± 0.7 mmHg. For the same compound, the IOP ([2]; 2 ng/mL, before perfusion) was 24.1 ± 0.8 mmHg, the “Difference in IOP between both treatments (IOP in 15-keto acid of latanoprost treatment minus IOP in vehicle treatment)” value [2, 3] was −2.9 ± 1.1 mmHg and the “ΔIOP: Changes of IOP from pre-treatment value” [2, 3] was −1.0 ± 0.7 mmHg. For the same compound, the “lowering of intraocular pressure as compared with the pre-treatment value” ([2]; 2 ng/mL, 3 hours after starting the perfusion) was 1.0 mmHg, the “Difference in IOP between both treatments (IOP in 15-keto acid of latanoprost treatment minus IOP in vehicle treatment)” value [2, 4] was 0.0 ± 1.0 mmHg and the “ΔIOP: Changes of IOP from pre-treatment value” [2, 4] was 0.3 ± 0.7 mmHg. The “Difference in IOP between both treatments (IOP in 15-keto acid of latanoprost treatment minus IOP in vehicle treatment)” value ([2]; 2 ng/mL, before perfusion) was 0.7 ± 1.1 mmHg.
